Literature values in patent publication US11666623B2, “Tetramaleimide linkers and use thereof” (NewBio Therapeutics, Inc., priority 2017, dated 2023).

Tested on: human carcinoma lines
Conditions: cited from earlier work

COc1cccc2c1C(=O)c1c(O)c3c(c(O)c1C2=O)C[C@@](O)(C(=O)CO)C[C@@H]3O[C@H]1C[C@H](N)[C@H](O)[C@H](C)O1 [doxorubicin, Doxorubicin]
IC50: 100 to 200 nM
